Numbers after ± are expanded uncertainties.
Assay: xn = mol fraction of the nth substance listed
Settings: for surface tension liquid-gas: Maximal bubble pressure; for mass density: 100 kPa, Liquid, Vibrating tube method

COCC[n+]1ccn(C)c1.O=S(=O)([N-]S(=O)(=O)C(F)(F)F)C(F)(F)F + CCO
Settings | mass density [kg/m3] | surface tension liquid-gas [mN/m]
288.15 K, x1 = 0.1003 | 1055.22 ± 6.7 | 24.8 ± 2.5
288.15 K, x1 = 0.2 | 1197.64 ± 7.6 | 25.9 ± 2.6
288.15 K, x1 = 0.2972 | 1285.52 ± 8.1 | 27.5 ± 2.8
288.15 K, x1 = 0.401 | 1350.45 ± 8.5 | 29.3 ± 2.9
288.15 K, x1 = 0.5028 | 1396.83 ± 8.7 | 31.5 ± 3.2
288.15 K, x1 = 0.5982 | 1430.26 ± 8.9 | 33.8 ± 3.4
288.15 K, x1 = 0.6973 | 1457.78 ± 9.1 | 35.8 ± 3.6
288.15 K, x1 = 0.8111 | 1483.2 ± 9.2 | 38.2 ± 3.8
288.15 K, x1 = 0.8991 | 1499.41 ± 9.3 | 39.7 ± 4
288.15 K, x1 = 1 | 1515.3 ± 9.4 | 41.4 ± 4.2
293.15 K, x1 = 0.1003 | 1050.42 ± 6.6 | 24.4 ± 2.4
293.15 K, x1 = 0.2 | 1192.63 ± 7.5 | 25.5 ± 2.6
293.15 K, x1 = 0.2972 | 1280.42 ± 8.1 | 27.1 ± 2.7
293.15 K, x1 = 0.401 | 1345.31 ± 8.4 | 29 ± 2.9
293.15 K, x1 = 0.5028 | 1391.67 ± 8.7 | 31.3 ± 3.1
293.15 K, x1 = 0.5982 | 1425.1 ± 8.9 | 33.5 ± 3.4
293.15 K, x1 = 0.6973 | 1452.62 ± 9 | 35.5 ± 3.6
293.15 K, x1 = 0.8111 | 1478.06 ± 9.2 | 38 ± 3.8
293.15 K, x1 = 0.8991 | 1494.28 ± 9.3 | 39.5 ± 4
293.15 K, x1 = 1 | 1510.15 ± 9.4 | 41.2 ± 4.1
298.15 K, x1 = 0.1003 | 1045.8 ± 6.6 | 23.9 ± 2.4
298.15 K, x1 = 0.2 | 1187.81 ± 7.5 | 25 ± 2.5
298.15 K, x1 = 0.2972 | 1275.51 ± 8 | 26.8 ± 2.7
298.15 K, x1 = 0.401 | 1340.28 ± 8.4 | 28.7 ± 2.9
298.15 K, x1 = 0.5028 | 1386.61 ± 8.7 | 31 ± 3.1
298.15 K, x1 = 0.5982 | 1420.05 ± 8.8 | 33.2 ± 3.3
298.15 K, x1 = 0.6973 | 1447.54 ± 9 | 35.3 ± 3.5
298.15 K, x1 = 0.8111 | 1472.95 ± 9.1 | 37.7 ± 3.8
298.15 K, x1 = 0.8991 | 1489.16 ± 9.2 | 39.2 ± 3.9
298.15 K, x1 = 1 | 1505.03 ± 9.4 | 41 ± 4.1
303.15 K, x1 = 0.1003 | 1040.76 ± 6.6 | 23.5 ± 2.4
303.15 K, x1 = 0.2 | 1182.58 ± 7.5 | 24.7 ± 2.5
303.15 K, x1 = 0.2972 | 1270.2 ± 8 | 26.5 ± 2.7
303.15 K, x1 = 0.401 | 1335.02 ± 8.4 | 28.4 ± 2.8
303.15 K, x1 = 0.5028 | 1381.37 ± 8.7 | 30.7 ± 3.1
303.15 K, x1 = 0.5982 | 1414.81 ± 8.8 | 33 ± 3.3
303.15 K, x1 = 0.6973 | 1442.35 ± 9 | 35 ± 3.5
303.15 K, x1 = 0.8111 | 1467.8 ± 9.1 | 37.5 ± 3.8
303.15 K, x1 = 0.8991 | 1484.03 ± 9.2 | 39 ± 3.9
303.15 K, x1 = 1 | 1499.92 ± 9.3 | 40.7 ± 4.1
308.15 K, x1 = 0.1003 | 1035.9 ± 6.5 | 23.1 ± 2.3
308.15 K, x1 = 0.2 | 1177.54 ± 7.4 | 24.4 ± 2.4
308.15 K, x1 = 0.2972 | 1265.09 ± 8 | 26.2 ± 2.6
308.15 K, x1 = 0.401 | 1329.88 ± 8.3 | 28.1 ± 2.8
308.15 K, x1 = 0.5028 | 1376.24 ± 8.6 | 30.4 ± 3
308.15 K, x1 = 0.5982 | 1409.68 ± 8.8 | 32.7 ± 3.3
308.15 K, x1 = 0.6973 | 1437.23 ± 8.9 | 34.8 ± 3.5
308.15 K, x1 = 0.8111 | 1462.7 ± 9.1 | 37.2 ± 3.7
308.15 K, x1 = 0.8991 | 1478.94 ± 9.2 | 38.8 ± 3.9
308.15 K, x1 = 1 | 1494.83 ± 9.3 | 40.5 ± 4.1
313.15 K, x1 = 0.1003 | 1031.02 ± 6.5 | 22.6 ± 2.3
313.15 K, x1 = 0.2 | 1172.49 ± 7.4 | 24 ± 2.4
313.15 K, x1 = 0.2972 | 1259.99 ± 7.9 | 25.8 ± 2.6
313.15 K, x1 = 0.401 | 1324.76 ± 8.3 | 27.8 ± 2.8
313.15 K, x1 = 0.5028 | 1371.12 ± 8.6 | 30.1 ± 3
313.15 K, x1 = 0.5982 | 1404.57 ± 8.7 | 32.5 ± 3.3
313.15 K, x1 = 0.6973 | 1432.14 ± 8.9 | 34.5 ± 3.5
313.15 K, x1 = 0.8111 | 1457.62 ± 9.1 | 37 ± 3.7
313.15 K, x1 = 0.8991 | 1473.87 ± 9.2 | 38.6 ± 3.9
313.15 K, x1 = 1 | 1489.77 ± 9.3 | 40.3 ± 4
318.15 K, x1 = 0.1003 | 1026.12 ± 6.5 | 22.3 ± 2.2
318.15 K, x1 = 0.2 | 1167.43 ± 7.4 | 23.7 ± 2.4
318.15 K, x1 = 0.2972 | 1254.88 ± 7.9 | 25.5 ± 2.6
318.15 K, x1 = 0.401 | 1319.64 ± 8.3 | 27.5 ± 2.8
318.15 K, x1 = 0.5028 | 1366.01 ± 8.6 | 29.9 ± 3
318.15 K, x1 = 0.5982 | 1399.48 ± 8.7 | 32.2 ± 3.2
318.15 K, x1 = 0.6973 | 1427.07 ± 8.9 | 34.3 ± 3.4
318.15 K, x1 = 0.8111 | 1452.56 ± 9 | 36.8 ± 3.7
318.15 K, x1 = 0.8991 | 1468.81 ± 9.1 | 38.3 ± 3.8
318.15 K, x1 = 1 | 1484.72 ± 9.2 | 40.1 ± 4

From the NIST ThermoML archive (doi:10.1016/j.jct.2019.06.005)
